What was measured:
[1] = tested on: peritoneal macrophages; assay: Peritoneal macrophage phagocytosis (neutral red uptake) in CTX-immunosuppressed mice; assay type: in vivo, mouse; settings: peritoneal macrophages of mice, OD 540 nm, CTX 80 mg/kg ip days 1-3, peptide 10 mg/kg ip days 4-10, control group 55.67%, n = 12
Method: For the first 3 days, CTX (80 mg/kg mouse weight) was administered intraperitoneally once daily to establish the immunosuppressed animal model. From days 4 to 10 (7 days), peptides (10 mg/kg mouse weight) were administered intraperitoneally each day. The CTX group was only treated with CTX, and the control group was given sterile saline. The dose volume was 200 μL. Twenty-four hours after the last dose, the mice were killed and their tissues and blood collected for analysis.
Peritoneal macrophages were aseptically obtained from the different groups of mice by peritoneal lavage with 5 mL ice-cold phosphate-buffered saline (PBS). The peritoneal macrophages were further isolated by incubating peritoneal exudate cells at 37 °C in a moist atmosphere (5% CO2, 95% air) for 3 h to allow the cells to adhere. The adherent cells were washed twice and collected as peritoneal macrophages.
The phagocytic capacity of the peritoneal macrophages was measured by the neutral red uptake method [52]. […] The OD was measured using a microplate reader at 540 nm. The phagocytic rate was calculated in the following way:(4) hagocytic rate (%)=OD540(sample)/OD540(control) ×100% where OD540 (sample) is the absorbance at 540 nm by peptide-treated cells and OD540 (control) is the absorbance at 540 nm by the cells without peptides treated.

[2] = Ex vivo stability in plasma; assay type: in vitro ADME; settings: rat plasma, in vitro, 37 °C, HPLC, log-linear regression; mean ± SEM of three biological replicates; read-out: t1/2, half-life in plasma (converted)
Method: The samples were collected into pre-chilled tubes containing 1 mL of acidic acetone (hydrochloric acid/acetone/H2O, 1:40:5, by volume). Subsequently, the mixture was centrifuged at 2 × 10^4 rpm at 4 °C for 20 min. The precipitates were dried in vacuo. The dried precipitates were dissolved in 0.5 mL of 1 M acetic acid. The peptide analysis was carried out according to the protocol for the study of Tα1 using HPLC [51]. The half-lives of the target peptides were calculated by a logarithm-linear regression analysis of the peptide concentrations.

[3] = target: T1, recombinant TLR4/MD2 complex (UniProt Q9QUK6 26-638; Q9JHF9 19-160); assay: SPR; TLR4/MD2 immobilised by amino coupling on a ProteOn GLH chip (ProteOn XPR36); LTAa passed over at 0, 1.25, 2.5, 5 and 10 μM (methods print mM); 25 °C; PBS with 0.1% Tween 20 and 2% DMSO; 30 μL/min; global fit, homogeneous 1:1 model; settings: both partners purified
T1 construct: Toll-like receptor 4 (TLR4) of the recombinant TLR4/MD2 complex; MD-2 (MD2, lymphocyte antigen 96) of the recombinant TLR4/MD2 complex; source: bought: R&D Systems
T1 sequence (looked up) 1: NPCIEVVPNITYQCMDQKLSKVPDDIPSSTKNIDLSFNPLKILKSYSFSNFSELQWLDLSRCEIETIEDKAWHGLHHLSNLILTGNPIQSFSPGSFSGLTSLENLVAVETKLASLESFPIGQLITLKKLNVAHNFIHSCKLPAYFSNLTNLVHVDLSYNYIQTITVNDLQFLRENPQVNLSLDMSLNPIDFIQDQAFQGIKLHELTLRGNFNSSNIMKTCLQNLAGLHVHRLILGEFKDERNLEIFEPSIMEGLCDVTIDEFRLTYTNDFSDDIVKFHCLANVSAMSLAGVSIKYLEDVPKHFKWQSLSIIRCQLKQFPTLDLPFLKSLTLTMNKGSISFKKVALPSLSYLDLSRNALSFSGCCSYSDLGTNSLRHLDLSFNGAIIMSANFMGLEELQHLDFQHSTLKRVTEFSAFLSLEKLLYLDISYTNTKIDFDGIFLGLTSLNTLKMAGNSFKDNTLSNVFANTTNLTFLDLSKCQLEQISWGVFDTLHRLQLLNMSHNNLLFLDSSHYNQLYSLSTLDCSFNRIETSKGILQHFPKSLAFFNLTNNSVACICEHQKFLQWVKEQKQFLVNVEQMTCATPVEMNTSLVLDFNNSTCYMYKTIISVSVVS
T1 sequence (looked up) 2: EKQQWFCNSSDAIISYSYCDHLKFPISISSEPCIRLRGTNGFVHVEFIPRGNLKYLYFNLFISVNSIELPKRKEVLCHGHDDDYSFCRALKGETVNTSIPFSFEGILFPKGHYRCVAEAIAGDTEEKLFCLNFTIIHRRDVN

**Q.** With `O=P1(N(CCCl)CCCl)NCCCO1` (stereo not drawn) [CTX, cyclophosphamide, reference compound] as the molecule, how does the macrophage phagocytic rate [1] read?
**A.** The macrophage phagocytic rate was 31.93%.

**Q.** With `CC[C@H](C)[C@H](NC(=O)[C@H](CCCCN)NC(=O)[C@H](CCC(=O)O)NC(=O)[C@H](CCCCN)NC(=O)[C@H](CO)NC(=O)[C@H](CCCCN)NC(=O)[C@H](CCCNC(=N)N)NC(=O)[C@H](Cc1ccccc1)NC(=O)[C@H](Cc1ccccc1)NC(=O)[C@H](CC(=O)O)NC(=O)CNC(=O)[C@H](CC(C)C)NC(=O)[C@@H](N)CC(C)C)C(=O)NCC(=O)N[C@@H](CCCCN)C(=O)N[C@@H](CCC(=O)O)C(=O)N[C@@H](Cc1ccccc1)C(=O)N[C@@H](CCCCN)C(=O)N[C@@H](CCCNC(=N)N)C(=O)N[C@H](C(=O)N[C@H](C(=O)N[C@@H](CCC(N)=O)C(=O)N[C@@H](CCCNC(=N)N)C(=O)N[C@H](C(=O)N[C@@H](CCCCN)C(=O)N[C@@H](CC(=O)O)C(=O)N[C@@H](Cc1ccccc1)C(=O)N[C@@H](CC(C)C)C(=O)N[C@@H](CCCNC(=N)N)C(=O)N[C@@H](CC(N)=O)C(=O)N[C@@H](CC(C)C)C(=O)N[C@H](C(=O)N1CCC[C@H]1C(=O)N[C@@H](CCCNC(=N)N)C(=O)N[C@H](C(=O)N[C@@H](CCC(=O)O)C(=O)N[C@@H](CO)C(=O)O)[C@@H](C)O)C(C)C)[C@@H](C)CC)C(C)C)[C@@H](C)CC` [LL-37] as the molecule, how does the half-life [2] read?
**A.** Its half-life is 186 ± 52.2 min.

B1: LL-37-Tα1a hybrid peptide (LTAa) (peptide)
peptide: IGKEFKRIVQRIKDFLRNLVPRTEKEKKEVVE
notes: LL-37, human cationic host-defense peptide, residues 13-36; Thymosin alpha-1 (Tα1), residues 17-24 (Tα1a); (32 residues); source: synthetic peptide (solid-phase, KangLong Biochemistry; purity >95%)
**Q.** Which Kd [3] does the source give for B1 here?
**A.** The Kd was 0.0491 nM.
